Literature values, collected in article PMC9610285 (Pharmaceutics, 2022).

System: MAO-B
Design: method as in earlier work
Conditions: main metabolite of rasagiline; cited from earlier work

For NC1CCc2ccccc21 (stereo not shown) [S1-1-aminoindane], the MAO-B inhibition is listed as “not a MAO-B inhibitor”.
